Test results from US8685976B2, “Cell adhesion promoting agent and method of promoting cell adhesion” (Kyoto University, priority 2008, dated 2014).

Experiments:
Jurkat cells [1] = assay: Cell growth assay (WST-8), Jurkat; assay type: cell-based, human
Method: (§1) In (A) and (B), the cell growth was determined at 24, 48, and 72 hours after the addition of adhesamine (1) (6 μM). The cell growth in the presence of 1% (v/v) DMSO was assigned a value of 100%. The data shown are means±SD for a minimum of three experiments. (C) to (F) show the rearrangement of actin filaments in HepG2 and Jurkat cells in the presence of adhesamine (6 μM). Brightfield images (C and D) and confocal images (E and F) are shown. HepG2 (C and E) or Jurkat (D and F) cells were plated for 5 hours or 3 hours, respectively, and actin cytoskeletal was visualized using rhodamine-labeled phalloidin.
1 μL DMSO solution of adhesamine (1) was added to 96-well plate at a concentration of 600 μM. […] After incubation for indicated time, the cell viability was measured using Cell Counting Kit-8 (Dojindo Molecular Technologies, Inc., Gaithersburg, Md.), which contains a tetrazolium salt (WST-8) that produces a water-soluble formazan dye by NADH dehydrogenases in living cells. […] The optical density (OD) of the solution was read by a microplate reader, using a test wavelength at 450 nm and a reference wavelength at 650 nm. […] Each assay was conducted in triplicate, and the means and standard derivations were calculated for a minimum of three independent experiments.

Jurkat cells [2] = assay: Visualization of actin cytoskeleton with rhodamine-conjugated phalloidin, Jurkat; assay type: cell-based, human; details: 6 μM
Method: as §1
Jurkat or HepG2 cells were plated onto glass coverslips in the presence of adhesamine (6 μM). They were fixed after 5 or 3 hours, respectively, with 4% paraformaldehyde for 20 minutes. The cell membrane was permeabilized by 5-min treatment with 0.1% Triton X-100 (in PBS). Samples were washed twice with PBS, and actin cytoskeleton was visualized with rhodamine-conjugated phalloidin according to the manufacturer's instructions (Invitrogen). The cell images were captured with a Yokogawa CSU22 confocal fluorescence microscope with 588-nm laser excitation.

Jurkat cells [3] = assay: Cell adhesion assay by coating; assay type: cell-based, human; details: 50 μg/well
Method: The surface area per well is 0.3 cm^2.
The assay samples (adhesamine (1), Type I collagen, poly-L-lysine hydrochloride, poly-L-ornithine hydrobromide, and fibronectin) were adjusted in concentration by being diluted with 10 mM PBS containing 1% DMSO. […] Thereafter, the wells were washed with Milli-Q water twice. 100 μL of Jurkat cell suspension (1×10^6 cells/mL) was added to each of coated wells. After 5-hour incubation at 37° C., non-adhered cells were removed by washing each well with PBS twice, and attached cells were counted with a Neubauer counting chamber (Digital Bio).

CHO 606 cells = assay: Cell adhesion assay, CHO 606; assay type: cell-based; details: CHO 606, 6 μM
Method: (§2) (A) and (B) show CHO-K1 (wild-type) cells incubated with 1% (v/v) DMSO (A) or 6 μM adhesamine (B). (C) and (D) show CHO 677 incubated with 1% (v/v) DMSO (A) or 6 μM adhesamine (B). […] Cells were seeded onto adhesamine-added or fibronectin-coated plastic wells. The concentrations of adhesamine and fibronectin were 6 μM and 5 μg/mL, respectively. Adhered cells were counted at 5 hours after seeding. Each point represents average±SD.
(§3) For CHO wild-type and CHO mutant cell lines, 100 μL of trypsinized cell suspension in a culture medium was added to each well at a density of 2×10^5 cells/mL. After 5-hour incubation at 37° C., non-adhered cells were removed by washing each well with PBS twice, and the attached cells were counted with a Neubauer counting chamber (Digital Bio). To calculate adhesion rates, the cell numbers before washing were assigned a value of 100%. Each assay was conducted in triplicate, and the means and standard derivations were calculated for a minimum of three independent experiments.

CHO F17 cells = assay: Cell adhesion assay, CHO F17; assay type: cell-based; details: CHO F17, 6 μM
Method: as §2, §3

Jurkat cells [4] = assay: Cell detachment assay; assay type: cell-based, human; details: 24 hour after washing (removal of adhesamine)
Method: FIG. 2 is a graph illustrating a reversible activity of adhesamine (1). The attached cells were counted at the indicated time points after removal of adhesamine (1). In order to calculate adhesion rates, the number of cells before washing was assigned a value of 100%. Each assay was conducted in triplicate, and the means and the standard deviations were calculated for a minimum of three independent experiments.
1 μL DMSO solution of adhesamine (1) (6 mM) was dispensed to each well on a 96-well plate. Jurkat cells were suspended in the growth medium, and 100 μL of cell suspension was added to each well at a density of 1×10^6 cells/mL. After 5-hour incubation at 37° C., the medium was aspirated, and the plates were washed twice with PBS. 100 μL of fresh medium was added to each well. After further 4, 8, 14 and 24-hour incubation at 37° C., non-adhered cells were removed by washing with PBS twice, and the attached cells were counted with a Neubauer counting chamber. To calculate adhesion rates, the cell numbers before washing were assigned a value of 100%. Each assay was conducted in triplicate, and the means and standard derivations were calculated for a minimum of three independent experiments.

[5] = tested on: focal adhesion kinase (FAK); assay: Western blotting, FAK activation; assay type: cell-based, human; details: Jurkat
Method: Jurkat cells were treated with adhesamine (6 μM) in a serum-poor culture medium (0.1% FBS) for the indicated periods of time. The treated cell lysates were Western blotted with antibodies against FAK phospho-tyrosine^397 (pFAK), FAK, ERK1/2 phospho-threonine^202/tyrosine^204 (pERK) or ERK. In (B), Jurkat cells were incubated for 5 hours with varied concentrations of adhesamine or poly-L-lysine. The cell lysates were Western blotted with antibodies against FAK phospho-tyrosine^397 or FAK. […] The concentration of adhesamine (1) was 6 μM.
Jurkat cells were maintained in an RPMI medium containing 10% FBS. 5-6 million Jurkat cells were dispensed to a well of a 6-well plate in a final volume of 2 mL, and then incubated at 37° C. for 0-5 hours in the presence of adhesamine or poly-L-lysine. Non-adherent cells were removed and pelleted, and the remaining adherent cells were lysed in a 125 mM Tris-HCl buffer (pH 6.8) containing 4% SDS, 10% glycerol, 0.006% bromophenol blue, and 1.8% β-mercaptoethanol. The adherent cell homogenate was combined with pelleted nonadherent cells from the same well, and the combined sample was boiled for 5 minutes. The samples were separated by SDS-PAGE and electroblotted onto a nitrocellulose membrane. The membranes were blocked in 1% BSA and incubated with primary antibody, and then with horseradish peroxidase-conjugated secondary antibody. The blots were developed using the enhanced chemiluminescence technique.

CSc1nc(Cl)c(C=O)c(N2CC[N+]3(CC2)CC[N+]2(CCN(c4nc(SC)nc(Cl)c4C=O)CC2)CC3)n1 [adhesamine]
cytotoxicity (Jurkat cells [1]; 6 μM): no obvious cytotoxicity
growth of the cells (Jurkat cells [1]; 6 μM, 24, 48, 72 hours, vs 1% DMSO): slightly enhanced
actin cytoskeleton structure in adhered cells (Jurkat cells [2]): well-organized cortical actin structure
cell attachment when applied as coating, compared with coating reagents (Jurkat cells [3]): greater effect than fibronectin, poly-L-lysine, and poly-L-ornithine
response of cell adhesion to adhesamine (CHO 606 cells): less responsive
response of cell adhesion to adhesamine (CHO F17 cells): responded
Jurkat cells released from the surface of a culture plate (Jurkat cells [4]): 93%
time after stimulation at which FAK phosphorylation was demonstrated ([5]; 6 μM, serum-poor medium): 5 h
concentration sufficient to phosphorylate FAK ([5]; 5 hours): 5 µg/mL
